{"source": "patent US20030134859A1", "about": "(SANKYO COMPANY, LIMITED, priority 2000, published 2003)", "key": {"[1]": {"system": "Mouse preadipocyte strain 3T3-L1", "assay": "Inhibition of differentiation as an indication of acetic acid uptake", "type": "cell-based", "details": "control (0.01% dimethylsulfoxide) = 100%; for activity at 0.1 µM: Mus musculus, 3T3-L1, 0.1 μM test substance, read-out: Rate of Uptake (%) of [2-14C] acetic acid", "method_in_brief": "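Confluent 3T3-L1 cells induced to differentiate for 4 days (insulin, IBMX, dexamethasone, 5% FBS) with test compound at 0.1 μM final or 0.01% DMSO, then 2 days in insulin maintenance medium, at 37 °C, 10% CO2. [2-14C]acetic acid uptake over 1 hr counted by scintillation; expressed as % of DMSO control.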"}, "[2]": {"system": "human colon cancer cells COL-2-JCK", "assay": "Inhibition of colony forming activity in human colon cancer cells", "type": "cell-based", "details": "Homo sapiens, 240 h; 1 μM test compound; 10 days; sum of colony areas vs control; read-out: Inhibition Rate (%) against the colony forming activity", "procedure": "For the medium to culture the human colon cancer cells, D-MEM/F-12 medium containing inactivated bovine fetal serum at a concentration of 10% (GIBCO) was used. The human colon cancer cells COL-2-JCK (purchased from Institute for Experimental Animals) grown in mass formation in a plastic dish for the cell culture with an inner diameter of 100 mm were stripped off from the dish by using EDTA (ethylenediaminetetraacetic acid) and 0.05% trypsin solution. Then, a cell dilution solution was prepared at a concentration of 100 cells/mL solution which was diluted with the medium (D-MEM/F-12).\nThree (3) mL of the cell solution were inoculated in each well of a 6-well plastic plate (300 cells/well). The test compound that was dissolved in DMSO solution so as to be a final concentration of 1 μM of the test compound and that of DMSO solution of 0.1% was added to each well. DMSO solution alone was added into the well for the control so as to be a final concentration of 0.1%.\nThe cells in each well were cultured for 10 days at 37° C. in the presence of 5% CO2. After the culturing was finalised, each well was washed once with Dulbecco-phosphate-buffer-saline solution (bivalent anion). Then, 1.5 ml of neutral buffered formalin solution containing 0.02% crystal violet was added to each well and the plate was kept stationary for 5 min for fixation and staining the cells. After fixation and staining, the cells were washed with water and were air-dried. Then the sum of the colony area (mm^2) of the stained cancer cells was calculated by using an image analyzer PCA-11 (SystemScience). From the calculated values, the inhibition rate (%) of the compound against the colony forming activity was obtained based on the following equation.\nInhibition Rate (%) against the colony forming activity=(1−A/B)×100\nA: Sum of Colony Areas in the Group Treated with 1 μM of the Test Compound\nB: Sum of Colony Areas in the Control Group"}, "Rat white adipocytes": {"system": "Rat white adipocytes", "assay": "Stimulation of differentiation of the adipocytes (Oil Red O)", "type": "cell-based", "details": "100 nM test compound, 5 days, Oil Red O ABS550, control = 100%, blank = 0%, Table 7; for activity at 0.1 µM: Rattus norvegicus, Adipocyte, 120 h, read-out: Rate of Differentiation (%)", "method_in_brief": "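Rat white adipocytes, 5,000 cells/well, cultured 5 days in differentiation-inducing medium with test compound at final 100 nM (0.1% DMSO). Cells fixed, stained with Oil Red O, dye extracted in DMSO and read at 550 nm; differentiation rate expressed relative to vehicle control (100%) and cell-free blank (0%).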"}, "TNF-α production": {"system": "TNF-α production", "assay": "Inhibitory activity against cytokine (TNF-α) production in LPS-stimulated RAW264.7 cells", "type": "cell-based, mouse", "details": "Mus musculus, RAW264.7, 15 h, 1 μM test compound, LPS 10 ng/mL", "procedure": "The mouse monocyte/macrophage cell line, RAW264.7 (ATCC TIB71) was purchased from Dainippon Pharmaceutical Co., Ltd. The RAW264.7 cells were cultured in a CO2 incubator (37° C., 95% of humidity, 5% of CO2) by using the Dulbecco's modified Eagle's medium (DMEM medium; GIBCO, Cat. No. 11995-040) containing bovine fetal serum (the final concentration: 10% (v/v), MOREGATE, lot No. 474030), penicillin G (the final concentration: 50 units/mL […], GIBCO) and streptomycin (the final concentration: 20 μg/mL, GIBCO).\nSixty (60) μL of the RAW264.7 cell suspension (83,000 cells/mL) were plated into each well of a 96-well microplate (5,000 cells/well). After the cells were cultured for 4 hr in a CO2 incubator, 40 μL of DMEM medium containing 25 ng/mL of LPS (Sigma-Aldrich Japan K. K.) were added into each well (final concentration of LPS: 10 ng/mL). The test compound dissolved in DMSO at a concentration of 1 mM was diluted with DMEM medium by 20 times. Then 2 μL/well of the diluted solution were added to wells containing the plated cells (final concentration of the test compound: 1 μM). As the control, 2 μL/well of DMSO diluted with DMEM medium by 20 times were added to wells containing the plated cells either with LPS (final concentration: 10 ng/mL) or without LPS. After these cells were cultured in a CO2 incubator for 15 hr, the supernatant of the medium was recovered. The amount of mTNF-α in the medium supernatant was determined with a mouse TNF-α ELISA kit Quantikine M (R&D System), according to the experiment protocol attached with the kit.\nThe inhibitory activity of the test compound against TNF-α production was calculated according to the following equation.\nA: The amount of TNF-α in the presence of test compound\nB: The amount of TNF-α in the control without LPS\nC: The amount of TNF-α in the control with 10 ng/mL of LPS\nInhibitory Activity of the Test Compound against TNF-α Production (%)=100−(A−B)/(C−B)×100"}}, "data": [{"smiles": "CCCCOc1ccc(NC(=O)c2cc([N+](=O)[O-])ccc2Cl)cc1", "note": "[Example 17, N-(4-Butyloxyphenyl)-(2-chloro-5-nitrophenyl)carboxamide]", "values": [{"measurement": "activity at 0.1 µM", "setting": "[1]", "result": 91.9, "unit": "%"}, {"measurement": "inhibition at 1 µM", "setting": "[2]", "result": 30, "unit": "%"}, {"measurement": "activity at 0.1 µM", "setting": "Rat white adipocytes", "result": 114, "unit": "%"}]}, {"smiles": "O=C(Nc1nc2ccccc2s1)c1cc([N+](=O)[O-])ccc1Cl", "note": "[Example 33, N-(Benzothiazol-2-yl)-(2-chloro-5-nitrophenyl)carboxamide]", "values": [{"measurement": "activity at 0.1 µM", "setting": "[1]", "result": 86.1, "unit": "%"}, {"measurement": "inhibition at 1 µM", "setting": "[2]", "result": 60, "unit": "%"}, {"measurement": "activity at 0.1 µM", "setting": "Rat white adipocytes", "result": 127, "unit": "%"}]}, {"smiles": "O=C(Nc1cccc2ncccc12)c1cc([N+](=O)[O-])ccc1Cl", "note": "[Example 56, N-(5-Quinolinyl)-(2-chloro-5-nitrophenyl)carboxamide]", "values": [{"measurement": "activity at 0.1 µM", "setting": "[1]", "result": 32.4, "unit": "%"}, {"measurement": "inhibition at 1 µM", "setting": "[2]", "result": 6, "unit": "%"}, {"measurement": "activity at 0.1 µM", "setting": "Rat white adipocytes", "result": 114, "unit": "%"}]}, {"smiles": "COc1ccc2nc(NC(=O)c3cc([N+](=O)[O-])ccc3Cl)sc2c1", "note": "[Example 67, N-(6-Methoxybenzothiazol-2-yl)-(2-chloro-5-nitrophenyl)carboxamide]", "values": [{"measurement": "inhibition at 1 µM", "setting": "TNF-α production", "result": 23.2, "unit": "%"}, {"measurement": "activity at 0.1 µM", "setting": "[1]", "result": 70.2, "unit": "%"}, {"measurement": "inhibition at 1 µM", "setting": "[2]", "result": 31, "unit": "%"}]}, {"smiles": "O=C(Nc1nc2c(Cl)cccc2s1)c1cc([N+](=O)[O-])ccc1Cl", "note": "[Example 69, N-(4-Chlorobenzothiazol-2-yl)-(2-chloro-5-nitrophenyl)carboxamide]", "values": [{"measurement": "activity at 0.1 µM", "setting": "[1]", "result": 57, "unit": "%"}, {"measurement": "inhibition at 1 µM", "setting": "[2]", "result": 84, "unit": "%"}, {"measurement": "activity at 0.1 µM", "setting": "Rat white adipocytes", "result": 135, "unit": "%"}]}, {"smiles": "O=C(Nc1cc(-c2ccccc2)[nH]n1)c1cc([N+](=O)[O-])ccc1Cl", "note": "[Example 72, N-(5-Phenylpyrazol-3-yl)-(2-chloro-5-nitrophenyl)carboxamide]", "values": [{"measurement": "activity at 0.1 µM", "setting": "[1]", "result": 76.7, "unit": "%"}, {"measurement": "inhibition at 1 µM", "setting": "[2]", "result": 39, "unit": "%"}, {"measurement": "activity at 0.1 µM", "setting": "Rat white adipocytes", "result": 124, "unit": "%"}]}, {"smiles": "O=C(Nc1ccc(S(=O)(=O)Nc2ncccn2)cc1)c1cc([N+](=O)[O-])ccc1Cl", "note": "[Example 95, N-[4-[(Pyrimidin-2-yl)aminosulfonyl]phenyl]-(2-chloro-5-nitrophenyl)carboxamide]", "values": [{"measurement": "activity at 0.1 µM", "setting": "[1]", "result": 86.3, "unit": "%"}, {"measurement": "inhibition at 1 µM", "setting": "[2]", "result": 1, "unit": "%"}, {"measurement": "activity at 0.1 µM", "setting": "Rat white adipocytes", "result": 115, "unit": "%"}]}, {"smiles": "Cl.O=C(Nc1ccc(-c2ccccn2)cc1)c1cc([N+](=O)[O-])ccc1Cl", "note": "[Example 147, N-[4-(Pyridin-2-yl)phenyl]-(2-chloro-5-nitrophenyl)carboxamide Hydrochloride]", "values": [{"measurement": "Rate of Uptake (%) of [2-14C] acetic acid", "setting": "[1]; 0.1 μM test substance", "result": 76.2, "unit": "%"}, {"measurement": "inhibition at 1 µM", "setting": "[2]", "result": 19, "unit": "%"}, {"measurement": "Rate of Differentiation (%)", "setting": "Rat white adipocytes", "result": 115.5, "unit": "%"}]}]}
